Results from patent US20140308207A1, “OPEN MICROFLUIDIC DEVICES FOR CHEMOTAXIS, METHODS OF USING SAME, AND APPLICATIONS OF SAME” (priority 2013, published 2014).

Legend:
[1] = tested on: Dictyostelium discoideum cells; conditions: AX2 cells expressing RBD-GFP, 10 μM cAMP, bulk silica device, cells A-E tracked
Source text: (Jowhar, et al., 2010.) D. discoideum cells expressing the Ras Binding Domain of Rafl and fused to the green fluorescent protein (RBD-GFP) were loaded into the open cell ports and exposed to gradients of the chemoattractant cAMP, as shown in FIG. 1E. […] Each 3 mm cell loading port was exposed to three different sources of cAMP (from three 3.0 μm gradient generating ports) under the control of a syringe or Harvard apparatus pump, which serves as a chemoattractant supply device. The syringe pump was used to apply a constant positive pressure to the loaded syringe, thus, preventing fluctuations in the gradient from potential backflow created by negative pressure.
A number of solitary cells that could be followed continuously were tracked using the Cell Tracker program written in LabVIEW™ software (FIG. 3a).
The starting point for each cell is marked with and X. Scale bar is 10 μm. In the table as shown in FIG. 3(b), V, C.I., and P represent velocity (microns/min.), chemotactic index, and persistence, respectively. The same cells were measured at different points along the traveled path to the source and are scored more than once. […]
In order to visualize the migration of cells and record the specifics of chemotactic response; a program was written with LabVIEW™ software. […] The measured centroids are overlayed on the image data so that the tracking of the cell can be visually verified.

[2] = tested on: Dictyostelium discoideum cells
Source text: Cells were readily loaded by micropipetting into the cell loading area where they were allowed to settle and adhere to the silica cover slip. The channels were primed with buffer by a syringe; we observed that the cells randomly migrated on the surface. Once the cells adhered, cAMP was pumped in to form a chemoattractant gradient. To perform this function, a Harvard apparatus pump was used to create positive pressure on the chemoattractant loaded syringe.
As shown in FIG. 6(a), tracks of seven individual cells (A-G) migrating toward the cAMP source openings (open circles). The starting point for each cell is marked with and X. Scale bar is 20 μm. B.) Quantitation of the migration parameters for cells A-G. In the table as shown in FIG. 6(b), V, C.I., and P represent velocity (microns/min.), chemotactic index, and persistence, respectively. The multiple data points in the table for cells A-G represent different sections of the path as the cell traveled toward the cAMP source.
The cell buffer was used for water immersion.
The device was connected to an inlet and outlet syringe on a Harvard Apparatus syringe pump using microfluidic tubing. […]
In order to visualize the migration of cells and record the specifics of chemotactic response; a program was written with LabVIEW™ software. […] The measured centroids are overlayed on the image data so that the tracking of the cell can be visually verified. […]

myeloid cells = assay: Intravital imaging of a mouse with microfluidic coverslip; assay type: in vivo; conditions: 50 ng/ml added through coverslip device

Compound | chemotaxis indices and persistence toward the source [1] | chemotaxis indices and persistence ([2]; AX2 cells expressing RBD-GFP, 100 nM cAMP, silica coverslip device with five ports, cells A-G tracked) | cell migration toward gradient ports ([2]; cells expressing LimE-RFP, cover slip device with three 15 μm ports, upright microscope, 80-minute series) | migration rates of myeloid cells (myeloid cells)
Nc1ncnc2c1ncn2[C@@H]1O[C@@H]2COP(=O)(O)O[C@H]2[C@H]1O [cAMP, cyclic adenosine monophosphate] | strong chemotaxis indices and persistence | good chemotaxis indices and persistence | rapidly migrated towards and into the cAMP gradient cover slip ports | 
epidermal growth factor: growth factor added through the microfluidic coverslip to alter myeloid cell migration |  |  |  | migration rates altered
